Measurements from US20250353835A1, “N-TETRAZOLYL ARYL UREA-BASED DERIVATIVES, PREPARATION METHOD THEREFOR, AND USE THEREOF” (Hangzhou Yirui Pharmaceutical Technology Co., Ltd, priority 2022, published 2025).

Tests used:
[1] = Ocular irritation after eye drops: ophthalmic observation and free protoporphyrin (FEP) in eye rinsing solution (ELISA); type: in vivo, SD rats; settings: 2% eye drops (10 μl) twice a day for 7 days
Experimental: 2.1 Experimental aminals: SPF grade male SD rats, weighed 180-200 g, were used and adaptively fed for one week.
2.3 Experimental animal grouping: the animals were randomly divided into 3 groups (6 rats per group) of a negative control group (normal saline), a Compound 71 group and a Compound 8 group.
2.4 Administration method and sampling: 2% Compound (10 μl) dissolved in normal saline (after filtration) was dropped into the surface of each rat's eye with a pipette for 10 s. The eye drop was applied twice a day for a total of 7 days. Samples were taken at 1 and 16 hours after the second administration on Day 7 of administration to determine the ocular distribution concentration of the drug.
[…] The rinsing solution was frozen at −80° C. for subsequent detection of irritant inflammatory response on the surface of the bulbus oculi.
2.7.2 Result of measurement of secretion of porphyrin: it was further determined whether inflammation or bleeding in the eyes occurred after eye drops by ELISA essay of free protoporphyrin (FEP) in erythrocytes. As indicated by the results, the level of FEP in the sample of eye rinsing solution was at a low concentration level for the rats in both the test drug group and the negative control group. There was no significant difference (P>0.05).

human B1R = molecular target: T1, human B1R (Homo sapiens, UniProt P46663); experiment: FLIPR calcium ion flux assay, inhibitory activity against human B1R; type: cell-based; settings: HEK293 cells stably expressing human B1R; agonist [Lys-des-Arg9]-Bradykinin 4.6 nM (EC80); FLIPR method
T1 construct: host or cells: HEK293
T1 sequence (P46663 1-353): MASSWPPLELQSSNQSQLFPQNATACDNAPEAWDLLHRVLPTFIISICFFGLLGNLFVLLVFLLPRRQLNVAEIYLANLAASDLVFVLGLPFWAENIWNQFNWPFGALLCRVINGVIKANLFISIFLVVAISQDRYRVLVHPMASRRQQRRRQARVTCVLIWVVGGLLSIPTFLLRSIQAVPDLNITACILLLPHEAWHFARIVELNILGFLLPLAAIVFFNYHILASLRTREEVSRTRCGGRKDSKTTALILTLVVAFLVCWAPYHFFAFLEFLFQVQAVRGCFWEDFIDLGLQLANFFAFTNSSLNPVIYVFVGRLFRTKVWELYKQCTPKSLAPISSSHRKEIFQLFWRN
Method in brief: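 HEK293 cells stably expressing human B1R, loaded with Fluo-4 Direct plus probenecid; compounds 9-point 1:5 series from 30 μM, duplicate, preincubated 10 min. Stimulation with [Lys-des-Arg9]-bradykinin at 4.6 nM final (EC80); peak fluorescence at 538 nm gave IC50.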

[2] = test system: rat model of diabetic retinopathy; experiment: Rat model of diabetic retinopathy (STZ); type: in vivo, Wistar rats; settings: for retinal leukocyte stasis, Leukocyte count: Concanavalin A/FITC, 14 days after intravitreal injection, compounds 0.25%, dexamethasone 0.1%; for number of leukocyte stasis in the retina (fluorescent staining, FIG. 8; in words) / retinal vascular penetration in rats (fluorescent staining, FIG. 6; in words): intraocular injection, versus model group
Experimental: 3.1 Laboratory animals: SPF-grade male Wistar rats, weighed 180-220 g.
3.3 Animal modeling and grouping: After one week of adaptive feeding, 134 male Wistar rats (weighed 220-260 g) were administered 65 mg/kg of STZ by one-time intraperitoneal injection to prepare a rat model of type I diabetic. The rats were fasting but water was allowable overnight for 15 h. The formulated STZ solution was intraperitoneally injected according to body weight. After 1 h, the diet was resumed and blood glucose was measured at 72 h. The successfully modeled diabetic rats (120 rats) were selected for continued feeding, and randomly divided into the following 6 groups according to blood glucose (20 rats per group), plus a group of normal rats with no STZ injected as a negative control group.
3.4 Administration: The rats continued to be fed until blood glucose was measured once before administration. After blood glucose reached the standard, drugs were intravitreally injected, and indexs were subsequently tested after 14 days. Blood glucose was measured once before sampling.
3.5 Evans blue staining method (7 groups, 6 rats per group): Evans blue was intravenously injected. 2 hours later, normal saline was perfused into the left ventricle. The retina was taken to compare between the stained area and the unstained area to detect retinal vascular permeability.
3.6 Retinal leukocyte stasis detection method (7 groups, 6 rats per group): PBS was perfused into the left ventricle for 1 min to remove red blood cells and other substances. Concanavalin A (FITC (Sigma, C7642) was perfused (20 μg/ml in PBS, 5 mg/kg) to mark adherent leukocytes. 4% PFA was perfused for 4 min for fixation. 1% Albumin (Sigma, A6414) (in PBS) was perfused for 1 min, and then PBS was perfused for 2 min. The retina was taken for retinal wholemount. Thereafter, the stasis of leukocytes on the vascular endothelium was observed under a fluorescence microscope. […]

| Compound | FEP expression level in eye rinsing solution, Left eye ([1]; 1 h) [ng/mL] | FEP expression level in eye rinsing solution, Right eye ([1]; 1 h) [ng/mL] | FEP expression level in eye rinsing solution, Left eye ([1]; 16 h) [ng/mL] | FEP expression level in eye rinsing solution, Right eye ([1]; 16 h) [ng/mL] | IC50 (human B1R) [nM] | retinal leukocyte stasis, Leukocyte count [2] | number of leukocyte stasis in the retina (fluorescent staining, FIG. 8; in words) [2] | retinal vascular penetration in rats (fluorescent staining, FIG. 6; in words) [2] |
| --- | --- | --- | --- | --- | --- | --- | --- | --- |
| CCOc1ccc(-c2c(F)cc(NC(=O)N3CCC(C(C)(C)C)CC3)cc2-c2nn[nH]n2)cn1 [Compound 8, 4-(tert-butyl)-N-(4-(6-ethoxypyrid-3-yl)-3-fluoro-5-(2H-tetrazol-5-yl)phenyl)piperidine-1-carboxamide] | 1.53 ± 0.03 | 1.45 ± 0.02 | 1.57 ± 0.08 | 1.57 ± 0.06 | 14.9 | 5.32 ± 1.38 | significantly reduced | significantly reduced |
| CCOc1ccc(-c2ccc(NC(=O)N[C@H]3CC[C@H](C)CC3)cc2-c2nn[nH]n2)cn1 [Compound 71, 1-(4-(6-ethoxypyrid-3-yl)-3-(2H-tetrazol-5-yl)phenyl)-3-((trans)-4-methylcyclohexyl)urea] | 1.50 ± 0.02 | 1.54 ± 0.08 | 1.61 ± 0.06 | 1.55 ± 0.09 | 66.1 | 5.22 ± 1.13 | significantly reduced | significantly reduced |
